This is an account of results in US11453660B2, “Androgen receptor and glucocorticoid receptor modulators” (ONCOSTELLAE, S.L., priority 2017, dated 2022).

The test has as its target T1, Human Glucocorticoid Receptor (Homo sapiens, UniProt P04150).
T1 construct: endogenous in cells; host or cells: cytosol from IM-9 cell line
T1 sequence (P04150 1-777): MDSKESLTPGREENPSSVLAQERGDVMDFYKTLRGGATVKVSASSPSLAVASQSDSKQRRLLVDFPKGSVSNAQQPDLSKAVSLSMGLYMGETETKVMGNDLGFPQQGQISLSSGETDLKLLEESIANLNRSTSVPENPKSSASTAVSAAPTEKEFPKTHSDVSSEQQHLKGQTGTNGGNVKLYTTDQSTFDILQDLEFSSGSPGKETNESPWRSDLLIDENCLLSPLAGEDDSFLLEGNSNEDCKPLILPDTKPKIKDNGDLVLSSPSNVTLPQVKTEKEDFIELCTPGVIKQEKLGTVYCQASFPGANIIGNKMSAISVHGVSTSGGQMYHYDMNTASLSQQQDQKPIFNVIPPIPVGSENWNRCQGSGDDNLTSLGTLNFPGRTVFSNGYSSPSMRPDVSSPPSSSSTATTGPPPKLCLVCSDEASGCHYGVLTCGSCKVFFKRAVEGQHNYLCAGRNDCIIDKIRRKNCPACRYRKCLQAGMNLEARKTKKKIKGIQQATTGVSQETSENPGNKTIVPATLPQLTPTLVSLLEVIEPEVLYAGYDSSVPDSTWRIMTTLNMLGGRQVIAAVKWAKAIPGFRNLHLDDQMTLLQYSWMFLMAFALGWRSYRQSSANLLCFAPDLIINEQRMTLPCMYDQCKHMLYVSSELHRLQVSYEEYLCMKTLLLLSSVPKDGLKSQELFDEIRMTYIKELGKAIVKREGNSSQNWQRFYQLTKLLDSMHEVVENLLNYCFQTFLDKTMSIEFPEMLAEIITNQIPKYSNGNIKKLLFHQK
Description: Competition Binding in IM-9 Human Glucocorticoid Receptor (GR IM-9). The note with it: cytosol from IM-9 cell line, 1.5 nM [3H]-Dexamethasone, 4° C. for 6 hours. The protocol: Competition Binding in IM-9 Human Glucocorticoid Receptor (GR IM-9)
Glucocorticoid receptor competition binding assays were carried out in a polypropilene 96-well plate. In each well was incubated 100 μg of cytosol from IM-9 cell line, 1.5 nM [3H]-Dexamethasone (71 Ci/mmol, 1 mCi/ml, Perkin Elmer NET1192001MC) and compounds studied and standard. Non-specific binding was determined in the presence of Triamcinolone 10 μM (Sigma Aldrich T6376).
The reaction mixture (Vt: 200 μl/well) was incubated at 4° C. for 6 hours, 180 μL was transferred to GF/B 96-well plate (Millipore, Madrid, Spain) pretreated with 0.5% of PEI and treated with binding buffer (TES 10 mM, sodium molybdate 10 mM, EDTA 1 mM, pH 7.4, 2-mercaptoethanol 20 mM, Glycerol 10%) after was filtered and washed six times with 250 μl wash buffer (TES 10 mM, sodium molybdate 10 mM, EDTA 1 mM, pH 7.4, 2-mercaptoethanol 20 mM Glycerol 10%), before measuring in a microplate beta scintillation counter (Microbeta Trilux, PerkinElmer, Madrid, Spain).
With `CC(=O)C1=C(C)NC(C)=C(C(=O)OCc2ccnc(Cl)c2)C1c1csc2ncccc12` (centres unmarked) [Example C77, (2-chloropyridin-4-yl)methyl 5-acetyl-2,6-dimethyl-4-(thieno[2,3-b]pyridin-3-yl)-1,4-dihydropyridine-3-carboxylate], the IC50 fell in the range of 0.1 to 1 µM.

As for `CC(=O)C1=C(C)NC(N)=C(C(=O)OCc2ccc(F)cc2)C1c1csc2c(C#N)cccc12` (centres unmarked) [Example D13, 4-fluorobenzyl 5-acetyl-2-amino-4-(7-cyanobenzo[b]thiophen-3-yl)-6-methyl-1,4-dihydropyridine-3-carboxylate], the half-maximal inhibitory concentration (IC50) is less than 0.1 µM.

As for `COC(=O)C1=C(N)NC(N)=C(C(=O)OC)C1c1csc2c(C#N)cccc12` [Example D20, dimethyl 2,6-diamino-4-(7-cyanobenzo[b]thiophen-3-yl)-1,4-dihydropyridine-3,5-dicarboxylate], the IC50 was 0.1 to 1 µM.

As to `CC(=O)C1=C(C)NC(C2CC2)=C(C(=O)OC2CCCCC2)C1c1csc2ncccc12` (centres unmarked) [Example C91, Cyclohexyl 5-acetyl-2-cyclopropyl-6-methyl-4-(thieno[2,3-b]pyridin-3-yl)-1,4-dihydropyridine-3-carboxylate], the IC50 is less than 0.1 µM.

`COC(=O)C1=C(C2CCC2)NC(C)=C(C(C)=O)C1c1csc2c(Br)cccc12` (centres unmarked) [Example C102, Methyl 5-acetyl-4-(7-bromobenzo[b]thiophen-3-yl)-2-cyclobutyl-6-methyl-1,4-dihydropyridine-3-carboxylate] came in with an IC50 of 0.1 to 1 µM.

The molecule `O=C(OCc1ccc(F)cc1)C1=C(C2CC2)NC(C2CC2)=C(C(=O)OCc2ccc(F)cc2)C1c1csc2ncccc12` [Example J42-a, bis(4-fluorobenzyl) 2,6-dicyclopropyl-4-(thieno[2,3-b]pyridin-3-yl)-1,4-dihydropyridine-3,5-dicarboxylate] gave an IC50 of 0.1 to 1 µM.

`COC(=O)C1=C(C)NC(N)=C(C(=O)OCC(C)(C)F)C1c1csc2c(C#N)cccc12` (centres unmarked) [Example D53, 3-(2-Fluoro-2-methylpropyl) 5-methyl 2-amino-4-(7-cyanobenzo[b]thiophen-3-yl)-6-methyl-1,4-dihydropyridine-3,5-dicarboxylate] came in with an IC50 of less than 0.1 µM.

Take `COC(=O)C1=C(N)NC(C2CC2)=C(C(=O)OCC2CC2)C1c1csc2c(C#N)cccc12` (centres unmarked) [Example D21, 5-(cyclopropylmethyl) 3-methyl 2-amino-4-(7-cyanobenzo[b]thiophen-3-yl)-6-cyclopropyl-1,4-dihydropyridine-3,5-dicarboxylate]: the 50% inhibitory concentration (IC50) was less than 0.1 µM.

As for `CC1=C(C(=O)OCC(F)(F)F)C(c2csc3c(C#N)cccc23)C(C(=O)OCC2CC2)=C(N)N1` (centres unmarked) [Example D51, 3-(Cyclopropylmethyl) 5-(2,2,2-trifluoroethyl) 2-amino-4-(7-cyanobenzo[b]thiophen-3-yl)-6-methyl-1,4-dihydropyridine-3,5-dicarboxylate], the IC50 is less than 0.1 µM.

As to `CC(=O)C1=C(C)NC(C2CC2)=C(C(=O)OCc2ccncc2)C1c1csc2ncccc12` (centres unmarked) [Example J36, Pyridin-4-ylmethyl 5-acetyl-2-cyclopropyl-6-methyl-4-(thieno[2,3-b]pyridin-3-yl)-1,4-dihydropyridine-3-carboxylate], the half-inhibitory concentration (IC50) was no less than 1 µM.

In turn, `COC(=O)C1=C(C2CCCC2)NC(C)=C(C(C)=O)C1c1csc2c(Br)cccc12` (centres unmarked) [Example C105, Methyl 5-acetyl-4-(7-bromobenzo[b]thiophen-3-yl)-2-cyclopentyl-6-methyl-1,4-dihydropyridine-3-carboxylate] had an IC50 of 0.1 to 1 µM.

`CC(=O)C1=C(C)NC(C2CC2)=C(C(=O)OC(C)(C)c2ccc(F)cc2)C1c1csc2c(Br)cccc12` (centres unmarked) [Example C96, 2-(4-fluorophenyl)propan-2-yl 5-acetyl-4-(7-bromobenzo[b]thiophen-3-yl)-2-cyclopropyl-6-methyl-1,4-dihydropyridine-3-carboxylate]: the IC50 is 0.1 to 1 µM.

As for `COC(=O)C1=C(N)NC(C)=C(C#N)C1c1csc2c(C#N)cccc12` (centres unmarked) [Example D12, Methyl 2-amino-5-cyano-4-(7-cyanobenzo[b]thiophen-3-yl)-6-methyl-1,4-dihydropyridine-3-carboxylate], the IC50 is less than 0.1 µM.

Turning to `COC(=O)C1=C(COCCN)NC(C)=C(C(C)=O)C1c1csc2ccccc12` (centres unmarked) [Example C114, Methyl 5-acetyl-2-((2-aminoethoxy)methyl)-4-(benzo[b]thiophen-3-yl)-6-methyl-1,4-dihydropyridine-3-carboxylate], the IC50 was no less than 1 µM.

For the molecule `COC(=O)C1=C(C2CC2)NC(C)=C(C(C)=O)C1c1csc2c(C(=O)C(F)(F)F)cccc12` (centres unmarked) [Example C85, Methyl 5-acetyl-2-cyclopropyl-6-methyl-4-(7-(2,2,2-trifluoroacetyl)benzo[b]thiophen-3-yl)-1,4-dihydropyridine-3-carboxylate], the IC50 is no less than 1 µM.

Take `CC(=O)C1=C(C)NC(C2CC2)=C(C(=O)OC2CCCC2)C1c1csc2ncccc12` (centres unmarked) [Example C100, Cyclopentyl 5-acetyl-2-cyclopropyl-6-methyl-4-(thieno[2,3-b]pyridin-3-yl)-1,4-dihydropyridine-3-carboxylate]: the IC50 is less than 0.1 µM.

Molecule `C#CCOC(=O)C1=C(N)NC(C)=C(C(=O)OC)C1c1csc2c(C#N)cccc12` (centres unmarked) [Example D55, 5-Methyl 3-prop-2-yn-1-yl 2-amino-4-(7-cyanobenzo[b]thiophen-3-yl)-6-methyl-1,4-dihydropyridine-3,5-dicarboxylate] came in with an IC50 of less than 0.1 µM.

As to `CC(=O)C1=C(C)NC(C2CC2)=C(C(=O)OC(C)C)C1c1csc2c(Br)cccc12` (centres unmarked) [Example C82, Isopropyl 5-acetyl-4-(7-bromobenzo[b]thiophen-3-yl)-2-cyclopropyl-6-methyl-1,4-dihydropyridine-3-carboxylate], the IC50 was less than 0.1 µM.

`COC(=O)C1=C(C(F)(F)F)NC(C)=C(C(C)=O)C1c1csc2c(Br)cccc12` (centres unmarked) [Example C83, Methyl 5-acetyl-4-(7-bromobenzo[b]thiophen-3-yl)-6-methyl-2-(trifluoromethyl)-1,4-dihydropyridine-3-carboxylate]: the IC50 was in the range of 0.1 to 1 µM.

In turn, `COC(=O)C1=C(C2CC2)NC(C2CC2)=C(C(=O)OCC2CC2)C1c1csc2c(C#N)cccc12` (centres unmarked) [Example C110, 3-(cyclopropylmethyl) 5-methyl 4-(7-cyanobenzo[b]thiophen-3-yl)-2,6-dicyclopropyl-1,4-dihydropyridine-3,5-dicarboxylate] registered an IC50 of less than 0.1 µM.

As to `CC(=O)C1=C(C)NC(N)=C(C(=O)OCC2CC2)C1c1csc2c(C#N)cccc12` (centres unmarked) [Example D10, Cyclopropylmethyl 5-acetyl-2-amino-4-(7-cyanobenzo[b]thiophen-3-yl)-6-methyl-1,4-dihydropyridine-3-carboxylate], the IC50 is less than 0.1 µM.

As for `COC(=O)C1=C(COCCN)NC(C)=C(C(C)=O)C1c1csc2c(Br)cccc12` (centres unmarked) [Example C115, Methyl 5-acetyl-2-((2-aminoethoxy)methyl)-4-(7-bromobenzo[b]thiophen-3-yl)-6-methyl-1,4-dihydropyridine-3-carboxylate], the IC50 was no less than 1 µM.

The molecule `COC(=O)C1=C(C2CC2)NC(C2CC2)=C(C(=O)OC)C1c1csc2ccc(Cl)cc12` [Example J25-a, Dimethyl 4-(5-chlorobenzo[b]thiophen-3-yl)-2,6-dicyclopropyl-1,4-dihydropyridine-3,5-dicarboxylate] returned an IC50 of 0.1 to 1 µM.

Usually IC50 stands for the midpoint of a concentration-inhibition curve. Read a low IC50 as greater potency in that assay.
